Starred links: 1 amine or outer side, 2 acyl side, 3 side chain; linkers in the order of their positions; H or OH if unused. Positions of bridges follow the written chain, without caps; N, C: chain ends. Non-standard residues stand in square brackets, D forms with d. Residues, ends and D or L forms follow the SMILES beside them. *: point of attachment. NH(CH2)3NHDOTA = O=C(O)CN1CCN(CC(=O)O)CCN(CC(=O)NCCCN*)CCN(CC(=O)O)CC1; DOTA = O=C(O)CN1CCN(CC(=O)O)CCN(CC(=O)*)CCN(CC(=O)O)CC1; X54 = O=C(Nc1cccc(C[C@H](N[*:1])C(=O)[*:2])c1)c1cnco1; Pyridine(2,6-diCH2) = c1cc(C[*:1])nc(C[*:2])c1; Dip = N[C@H](C(=O)O)C(c1ccccc1)c1ccccc1; Phe(4-NH2) = Nc1ccc(C[C@H](N)C(=O)O)cc1; mXylylene = c1cc(C[*:1])cc(C[*:2])c1; NMeY = CN[C@@H](Cc1ccc(O)cc1)C(=O)O; Orn(Me2) = CN(C)CCC[C@H](N)C(=O)O; X2 = O=C(CN1CCC(N[*:1])CC1)[*:2]; tBuAla = CC(C)(C)C[C@H](N)C(=O)O; Orn = NCCC[C@H](N)C(=O)O; Fluoroacetyl = O=C(CF)*; Sar = CNCC(=O)O

The first assay concerns the target T1, CAIX-expressing human HT-29 colorectal cancer cells (Homo sapiens, UniProt Q16790).
T1 construct: CAIX-expressing human HT-29 colorectal cancer cells; host or cells: HT-29 human colorectal cancer cells
The experiment in a line: FACS binding assay (IC50 determination, competition with tracer 3BP-2776 or 3BP-4149).
Details: not given
The method, boiled down: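 HT-29 cells in FACS buffer (PBS, 1% FCS) at 500.000 cells/ml were exposed to compounds competing with a labelled tracer, with biotinylated compounds detected by 1 μg/mL APC-streptavidin for 30 min on ice. APC/Cy5 median fluorescence was read by flow cytometry and IC50 derived by 4PL fit.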
A general note: In flow cytometry, cells or beads pass a laser one at a time.
Take `CC(C)C[C@@H]1NC(=O)[C@H](Cc2ccc(NC(=O)CF)cc2)NC(=O)[C@H](CC(=O)O)NC(=O)[C@H]2CCCN2C(=O)[C@H](CCC(=O)O)NC(=O)[C@@H](NC(=O)[C@H](Cc2ccc(O)cc2)NC(=O)[C@@H](NC(=O)CN2CCC(NC(=O)CN3CCN(CC(=O)O)CCN(CC(=O)O)CCN(CC(=O)O)CC3)CC2)C(C)C)CSCc2cccc(c2)CSC[C@@H](C(N)=O)NC(=O)[C@H](CO)NC(=O)[C@H](Cc2c[nH]c3ccccc23)NC(=O)[C@H]([C@@H](C)O)NC1=O` [3BP-4358] ({DOTA}-[X2]VYCE[dP]D[Phe(4-NH2)](Fluoroacetyl)LTWSC-NH2; linker 4-13 via mXylylene): the IC50 was in the range of 100 to 794 nM.

The same assay, now with this note: FACS binding assay, HT-29 cells, competition with tracer 3BP-2776 (10 nM, biotin-labeled), 4° C., 1 hour; read-out: pIC50 category (activity) (converted).
`CC(C)C[C@@H]1NC(=O)[C@H](C(c2ccccc2)c2ccccc2)NC(=O)[C@H](CC(=O)O)NC(=O)[C@H]2CCCN2C(=O)[C@H](CCC(=O)O)NC(=O)[C@@H](NC(=O)[C@H](Cc2ccc(O)cc2)NC(=O)[C@@H](NC(=O)CN2CCC(NC(=O)CN3CCN(CC(=O)O)CCN(CC(=O)O)CCN(CC(=O)O)CC3)CC2)C(C)C)CSCc2cccc(c2)CSC[C@@H](C(N)=O)NC(=O)[C@H](CO)NC(=O)[C@H](Cc2c[nH]c3ccccc23)NC(=O)[C@H]([C@@H](C)O)NC1=O` [3BP-4132] ({DOTA}-[X2]VYCE[dP]D[Dip]LTWSC-NH2; linker 4-13 via mXylylene): the IC50 is under 10 nM. As for `CC(C)C[C@@H]1NC(=O)[C@H](Cc2c[nH]c3ccccc23)NC(=O)[C@H](CC(=O)O)NC(=O)[C@H]2CCCN2C(=O)[C@H](CCC(=O)O)NC(=O)[C@@H](NC(=O)[C@H](Cc2ccc(O)cc2)NC(=O)[C@@H](NC(=O)CN2CCC(NC(=O)CN3CCN(CC(=O)O)CCN(CC(=O)O)CCN(CC(=O)O)CC3)CC2)C(C)C)CSCc2cccc(n2)CSC[C@@H](C(N)=O)NC(=O)[C@H](CO)NC(=O)[C@H](Cc2c[nH]c3ccccc23)NC(=O)[C@H]([C@@H](C)O)NC1=O` [3BP-4140] ({DOTA}-[X2]VYCE[dP]DWLTWSC-NH2; linker 4-13 via Pyridine(2,6-diCH2)), the IC50 is 10 to 79.4 nM.

In the case of `CC(C)C[C@@H]1NC(=O)[C@H](Cc2cccc(NC(=O)c3cnco3)c2)NC(=O)[C@H](CC(=O)O)NC(=O)[C@H]2CCCN2C(=O)[C@H](CCC(=O)O)NC(=O)[C@@H](NC(=O)[C@H](Cc2ccc(O)cc2)NC(=O)[C@@H](NC(=O)CN2CCC(NC(=O)CN3CCN(CC(=O)O)CCN(CC(=O)O)CCN(CC(=O)O)CC3)CC2)C(C)C)CSCc2cccc(c2)CSC[C@@H](C(N)=O)NC(=O)[C@H](CO)NC(=O)[C@H](Cc2c[nH]c3ccccc23)NC(=O)[C@H]([C@@H](C)O)NC1=O` [3BP-4239] ({DOTA}-[X2]VYCE[dP]D[X54]LTWSC-NH2; linker 4-13 via mXylylene), the IC50 was 10 to 79.4 nM.

Take `CC(C)C[C@@H]1NC(=O)[C@H](Cc2c[nH]c3ccccc23)NC(=O)[C@H](CCCN(C)C)NC(=O)[C@H]2CCCN2C(=O)[C@H](CCC(=O)O)NC(=O)[C@@H](NC(=O)[C@H](Cc2ccc(O)cc2)NC(=O)[C@@H](NC(=O)CN2CCC(NC(=O)CN3CCN(CC(=O)O)CCN(CC(=O)O)CCN(CC(=O)O)CC3)CC2)C(C)C)CSCc2cccc(c2)CSC[C@@H](C(N)=O)NC(=O)[C@H](CO)NC(=O)[C@H](Cc2c[nH]c3ccccc23)NC(=O)[C@H]([C@@H](C)O)NC1=O` [3BP-4098] ({DOTA}-[X2]VYCE[dP][Orn(Me2)]WLTWSC-NH2; linker 4-13 via mXylylene): the IC50 was 10 to 79.4 nM. As to `CC(=O)N[C@H](C(=O)N[C@@H](Cc1ccc(O)cc1)C(=O)N[C@H]1CSCc2cccc(c2)CSC[C@@H](C(N)=O)NC(=O)[C@H](CO)NC(=O)[C@H](Cc2c[nH]c3ccccc23)NC(=O)[C@@H]2CCC(=O)NCCC[C@H](NC(=O)[C@H]3CCCN3C(=O)[C@H](CCC(=O)O)NC1=O)C(=O)N[C@@H](Cc1c[nH]c3ccccc13)C(=O)N[C@@H](CC(C)C)C(=O)N2)C(C)C` [3BP-3958] (Ac-VYCE[dP][Orn]WLEWSC-NH2; linker 3-12 via mXylylene; lactam 6-9), the IC50 is 10 to 79.4 nM.

Consider `CC(=O)N[C@H](C(=O)N[C@@H](Cc1ccc(O)cc1)C(=O)N[C@H]1CSCc2cccc(c2)CSC[C@@H](C(N)=O)NC(=O)[C@H](CO)NC(=O)[C@H](Cc2c[nH]c3ccccc23)NC(=O)[C@H]2CC(=O)NCCCC[C@H](NC(=O)[C@H]3CCCN3C(=O)[C@H](CCC(=O)O)NC1=O)C(=O)N[C@@H](Cc1c[nH]c3ccccc13)C(=O)N[C@@H](CC(C)C)C(=O)N2)C(C)C` [3BP-4043] (Ac-VYCE[dP]KWL[dD]WSC-NH2; linker 3-12 via mXylylene; lactam 6-9), for which the IC50 was 100 to 794 nM. Regarding `CC(C)C[C@@H]1NC(=O)[C@H](Cc2c[nH]c3ccccc23)NC(=O)[C@H](CO)NC(=O)[C@H]2CCCCNC(=O)CC[C@H](NC1=O)C(=O)N[C@@H](Cc1c[nH]c3ccccc13)C(=O)N[C@@H](CO)C(=O)N[C@H](C(N)=O)CSCc1cccc(c1)CSC[C@H](NC(=O)[C@H](Cc1ccc(O)cc1)NC(=O)[C@@H](NC(=O)CN1CCC(NC(=O)CN3CCN(CC(=O)O)CCN(CC(=O)O)CCN(CC(=O)O)CC3)CC1)C(C)C)C(=O)N[C@@H](CCC(=O)O)C(=O)N2` [3BP-4115] ({DOTA}-[X2]VYCE[dK]SWLEWSC-NH2; linker 4-13 via mXylylene; lactam 6-10), the IC50 is 10 to 79.4 nM.

The assay is the same for the next values; noted with them: FACS competition on HT-29 cells, Tracer ID 3BP-2776 (10 nM, biotin-labeled), 4° C., 1 hour; read-out: pIC50 category (activity) (converted).
On to `CC[C@H](C)[C@H](NC(C)=O)C(=O)N[C@@H](Cc1ccc(O)cc1)C(=O)N[C@H]1CSCc2cccc(c2)CSC[C@@H](C(N)=O)NC(=O)[C@H](CO)NC(=O)[C@H](Cc2c[nH]c3ccccc23)NC(=O)[C@H]([C@@H](C)O)NC(=O)[C@H](CC(C)C)NC(=O)[C@H](Cc2c[nH]c3ccccc23)NC(=O)[C@H](CC(=O)O)NC(=O)[C@H]2CCCN2C(=O)[C@H](CCC(=O)O)NC1=O` [3BP-3568] (Ac-IYCE[dP]DWLTWSC-NH2; linker 3-12 via mXylylene), for which the IC50 is under 10 nM.

Regarding `CC(=O)N[C@H](C(=O)N(C)[C@@H](Cc1ccc(O)cc1)C(=O)N[C@H]1CSCc2cccc(c2)CSC[C@@H](C(N)=O)NC(=O)[C@H](CO)NC(=O)[C@H](Cc2c[nH]c3ccccc23)NC(=O)[C@H]([C@@H](C)O)NC(=O)[C@H](CC(C)C)NC(=O)[C@H](Cc2c[nH]c3ccccc23)NC(=O)[C@H](CC(=O)O)NC(=O)[C@H]2CCCN2C(=O)[C@H](CCC(=O)O)NC1=O)C(C)C` [3BP-3589] (Ac-V[NMeY]CE[dP]DWLTWSC-NH2; linker 3-12 via mXylylene), the IC50 was under 10 nM. On to `CC(=O)N[C@H](C(=O)N[C@@H](Cc1ccc(O)cc1)C(=O)N[C@H]1CSCc2cccc(c2)CSC[C@@H](C(N)=O)NC(=O)[C@H](C)NC(=O)[C@H](Cc2c[nH]c3ccccc23)NC(=O)[C@H]([C@@H](C)O)NC(=O)[C@H](CC(C)(C)C)NC(=O)[C@H](Cc2c[nH]c3ccccc23)NC(=O)[C@H](CC(=O)O)NC(=O)[C@H]2CCCN2C(=O)[C@H](CCC(=O)O)NC1=O)C(C)C` [3BP-3490] (Ac-VYCE[dP]DW[tBuAla]TWAC-NH2; linker 3-12 via mXylylene), for which the IC50 is under 10 nM.

Consider `CC(=O)N[C@H](C(=O)N[C@@H](Cc1ccc(O)cc1)C(=O)N[C@H]1CSCc2cccc(c2)CSC[C@@H](C(N)=O)NC(=O)[C@H](CO)NC(=O)[C@H](Cc2c[nH]c3ccccc23)NC(=O)[C@H]2CCC(=O)NCCCC[C@H](NC(=O)[C@H]3CCCN3C(=O)[C@H](CCC(=O)O)NC1=O)C(=O)N[C@@H](Cc1c[nH]c3ccccc13)C(=O)N[C@@H](CC(C)C)C(=O)N2)C(C)C` [3BP-3957] (Ac-VYCE[dP]KWL[dE]WSC-NH2; linker 3-12 via mXylylene; lactam 6-9), for which the IC50 is under 10 nM. On the same count and under the same terms, under `CC(=O)N[C@H](C(=O)N[C@@H](Cc1ccc(O)cc1)C(=O)N[C@H]1CSCc2cccc(c2)CSC[C@@H](C(N)=O)NC(=O)[C@H](CCC(N)=O)NC(=O)[C@H](Cc2c[nH]c3ccccc23)NC(=O)[C@H]([C@@H](C)O)NC(=O)[C@H](CC(C)C)NC(=O)[C@H](Cc2c[nH]c3ccccc23)NC(=O)[C@H](C)NC(=O)CNC(=O)[C@H](CCC(=O)O)NC1=O)C(C)C` [3BP-3053] (Ac-VYCEGAWLTWQC-NH2; linker 3-12 via mXylylene) stands 10 to 79.4 nM; under `CC(=O)N[C@@H](Cc1ccc(O)cc1)C(=O)N[C@H]1CSCc2cccc(c2)CSC[C@@H](C(N)=O)NC(=O)[C@H](CCC(=O)NCCCNC(=O)CN2CCN(CC(=O)O)CCN(CC(=O)O)CCN(CC(=O)O)CC2)NC(=O)[C@H](Cc2c[nH]c3ccccc23)NC(=O)[C@H]([C@@H](C)O)NC(=O)[C@H](CC(C)C)NC(=O)[C@H](Cc2c[nH]c3ccccc23)NC(=O)[C@H](CC(=O)O)NC(=O)[C@H]2CCCN2C(=O)[C@H](CCC(=O)O)NC1=O` [3BP-3841] (Ac-YCE[dP]DWLTWE(NH(CH2)3NHDOTA)C-NH2; linker 2-11 via mXylylene), under 10 nM; under `CC(=O)N[C@H](C(=O)N[C@@H](Cc1ccc(O)cc1)C(=O)N[C@H]1CSCc2cccc(c2)CSC[C@@H](C(N)=O)NC(=O)[C@H](CCC(N)=O)NC(=O)[C@H](Cc2c[nH]c3ccccc23)NC(=O)CNC(=O)[C@H](CC(C)C)NC(=O)[C@H](Cc2c[nH]c3ccccc23)NC(=O)[C@H](CC(=O)O)NC(=O)CN(C)C(=O)[C@H](CCC(=O)O)NC1=O)C(C)C` [3BP-3307] (Ac-VYCE[Sar]DWLGWQC-NH2; linker 3-12 via mXylylene), under 10 nM. Regarding `CC(=O)N[C@@H](C(=O)N[C@@H](Cc1ccc(O)cc1)C(=O)N[C@H]1CSCc2cccc(c2)CSC[C@@H](C(N)=O)NC(=O)[C@H](CCC(N)=O)NC(=O)[C@H](Cc2c[nH]c3ccccc23)NC(=O)[C@H]([C@@H](C)O)NC(=O)[C@H](CC(C)C)NC(=O)[C@H](Cc2c[nH]c3ccccc23)NC(=O)[C@H](CC(=O)O)NC(=O)CNC(=O)[C@H](CCC(=O)O)NC1=O)C(C)C` [3BP-3043] (Ac-[dV]YCEGDWLTWQC-NH2; linker 3-12 via mXylylene), the IC50 is 10 to 79.4 nM.

Values taken from patent US20250339569A1, “CARBONIC ANHYDRASE IX LIGANDS” (priority 2021, published 2025).
